Laboratory results as given in patent US20110280827A1, “METHODS AND COMPOSITIONS FOR TREATING HEMATOLOGICAL MALIGNANCIES” (priority 2009, published 2011).

Key:
pre-B-ALL cells = settings: in vitro; cited from earlier work
[1] = in vivo; cited from earlier work
AML = settings: in combination with chemotherapy, compared to chemotherapy alone; cited from earlier work
[2] = tested on: B104 B-cell lymphoma cells; test: Disseminated B104 lymphoma model in SCID mice (survival, Kaplan-Meier); format: in vivo
Procedure: Five groups of 4- to 6-week-old SCID mice (8 animals each) were injected intravenously with 1×10^6 B104 B-cell lymphoma cells. […] Starting on day 7 after the injection, one group was administered CAMPATH® (alemtuzumab) weekly at 10 mg/kg; a second group was administered AMD3465 three times a week (Monday, Wednesday, Friday regimen) at 5.0 mg/kg; a third group was administered CAMPATH® (alemtuzumab) weekly at 10 mg/kg and AMD3465 three times a week (Monday, Wednesday, Friday regimen) at 1.0 mg/kg; and a fourth group was administered CAMPATH® (alemtuzumab) weekly at 10 mg/kg and AMD3465 three times a week (Monday, Wednesday, Friday regimen) at 5.0 mg/kg. […] The treatment was terminated on day 42.
Four groups of 4- to 6-week-old SCID mice (8 animals each) were injected intravenously with 1×10^6 B104 B-cell lymphoma cells. Starting on day 10 after the injection, one group was administered CAMPATH® (alemtuzumab) weekly at 10 mg/kg; a second group was administered AMD3465 daily (Monday-Friday regimen) at 5.0 mg/kg; and a third group was administered CAMPATH® (alemtuzumab) weekly at 10 mg/kg and AMD3465 daily (Monday-Friday regimen) at 5.0 mg/kg body weight.

[3] = tested on: Raji B-cell lymphoma cells; test: Disseminated Raji lymphoma model in SCID mice (survival, Kaplan-Meier); format: in vivo
Procedure: Four groups of 4- to 6-week-old SCID mice (8 animals each) were injected intravenously with 2×10^6 Raji B-cell lymphoma cells. The Raji cell line is a well-characterized human B-cell lymphoblastic line (CXCR4^+, CD19^+, CD20^+, CD22^+, CD52^+) derived from a patient with Burkitt's lymphoma (available from the American Tissue and Cell Collection, Manassas, Va.). Starting on day 7 after the injection, three of the four groups were administered subcutaneous AMD3465 daily (Monday-Friday regimen) at 0.1 mg/kg, 0.5 mg/kg or 1.0 mg/kg body weight.

[4] = tested on: stroma-cocultured Jurkat cells, primary CLL cells, subset of AML cells harboring Flt3 mutation; settings: in vitro, stroma coculture; cited from earlier work

SMILES	SDF-1/CXCL12 induced chemotaxis of pre-B-ALL cells into bone marrow stroma layers (pre-B-ALL cells)	cytotoxic and antiproliferative effects of vincristine and dexamethasone (pre-B-ALL cells)	white blood cell count [1]	overall survival (AML)	tumor burden (AML)	mean survival ([2]; 5.0 mg/kg AMD3465 alone daily (M-F) from day 10)	mean survival ([2]; 5.0 mg/kg AMD3465 alone three times a week (M, W, F) from day 7)	mean survival ([3]; 5.0 mg/kg AMD3465 alone daily (M-F) from day 7)	dose dependence of the survival effect ([3]; AMD3465 alone 0.1, 0.5, 1.0 mg/kg, reverse dose-response)	mean survival ([3]; AMD3465 alone s.c. daily (M-F) at 0.1, 0.5 or 1.0 mg/kg from day 7, each concentration tested, vs control)	chemotherapy-induced apoptosis [4]
c1cc(CN2CCCNCCNCCCNCC2)ccc1CN1CCCNCCNCCCNCC1 [AMD3100]	blocked	enhanced	increasing the white blood cell count	improved overall survival	decreased tumor burden						
c1ccc(CNCc2ccc(CN3CCCNCCNCCCNCC3)cc2)nc1 [AMD3465]				improved overall survival	decreased tumor burden	did not have a significant effect	did not have a significant effect	did not have a significant effect	stronger effect observed at the lower concentrations	significantly increased	significantly enhanced
